Where a name gives a salt, the structure may show the parent alone. Where only a bound is given, the exact number is not on record here.

One assay has as its system subgenomic HCV Replicon in HuH-7 hepatoma cells. Put plainly: Assay for inhibition of HCV RNA replication (subgenomic replicon, in situ ribonuclease protection SPA). The format is cell-based, Hepatitis C Virus. The note with it: Hepatitis C virus, Huh-7. The method, then: The compounds of the present invention were also evaluated for their ability to affect the replication of Hepatitis C Virus RNA in cultured hepatoma (HuH-7) cells containing a subgenomic HCV Replicon. The details of the assay are described below. This Replicon assay is a modification of that described in V. Lohmann, F. Korner, J-O. Koch, U. Herian, L. Theilmann, and R. Bartenschlager, “Replication of a Sub-genomic Hepatitis C Virus RNAs in a Hepatoma Cell Line,” Science 285:110 (1999).
The assay was an in situ Ribonuclease protection, Scintillation Proximity based-plate assay (SPA). 10,000-40,000 cells were plated in 100-200 μL of media containing 0.8 mg/mL G418 in 96-well cytostar plates (Amersham). Compounds were added to cells at various concentrations up to 100 μM in 1% DMSO at time 0 to 18 h and then cultured for 24-96 h. Cells were fixed (20 min, 10% formalin), permeabilized (20 min, 0.25% Triton X-100/PBS) and hybridized (overnight, 50° C.) with a single-stranded ^33P RNA probe complementary to the (+) strand NS5B (or other genes) contained in the RNA viral genome. Cells were washed, treated with RNAse, washed, heated to 65° C. and counted in a Top-Count Inhibition of replication was read as a decrease in counts per minute (cpm).
Human HuH-7 hepatoma cells, which were selected to contain a subgenomic replicon, carry a cytoplasmic RNA consisting of an HCV 5′ non-translated region (NTR), a neomycin selectable marker, an EMCV IRES (internal ribosome entry site), and HCV non-structural proteins NS3 through NS5B, followed by the 3′ NTR.
(In antiviral work, replicon cells carry a viral genome segment that copies itself.)
In turn, `COc1nc(-c2cn([C@@H]3O[C@H](CO)[C@@H](O)[C@@]3(C)O)c3ncnc(N)c23)cs1` [Compound 4, 5-(2-methoxy-1,3-thiazol-4-yl)-7-(2-C-methyl-β-D-ribofuranosyl)-7H-pyrrolo[2,3-d]pyrimidin-4-amine trifluoroacetate] returned an EC50 of more than 50 µM.
Turning to `CCOC(=O)[C@H](C)NP(=O)(OC[C@H]1O[C@@H](n2cc(-c3ccn[nH]3)c3c(N)ncnc32)[C@](C)(O)[C@@H]1O)Oc1ccccc1` (stereo in doubt) [Compound 29, Ethyl 2-{[(R)-({(2R,3S,4R,5R)-5-[4-amino-5-(1H-pyrazol-5-yl)-7H-pyrrolo[2,3-d]pyrimidin-7-yl]-3,4-dihydroxy-4-methyltetrahydrofuran-2-yl}methoxy)(phenoxy)phosphoryl]amino}propanoate], the EC50 is less than 20 µM.
Compound `CCOC(=O)[C@H](C)NP(=O)(OC[C@H]1O[C@@H](n2cc(-c3ncco3)c3c(N)ncnc32)[C@](C)(O)[C@@H]1O)Oc1ccccc1` (stereo in doubt) [Compound 30, Ethyl 2-{[(R)-({(2R,3S,4R,5R)-5-[4-amino-5-(1,3-oxazol-2-yl)-7H-pyrrolo[2,3-d]pyrimidin-7-yl]-3,4-dihydroxy-4-methyltetrahydrofuran-2-yl}methoxy)(phenoxy)phosphoryl]amino}propanoate] yielded an EC50 of less than 20 µM.
Same read-out and setting: the result for `Cn1cc(-c2cn([C@@H]3O[C@H](CO)[C@@H](O)[C@@]3(C)O)c3ncnc(N)c23)nn1` [Compound 8, 7-(2-C-methyl-β-D-ribofuranosyl)-5-(1-methyl-1H-1,2,3-triazol-4-yl)-7H-pyrrolo[2,3-d]pyrimidin-4-amine trifluoroacetate] reads 20 to 50 µM.

The assay is the same for the next values; noted with them: Hepatitis C virus; HuH-7 cells containing a subgenomic HCV Replicon, compounds up to 100 μM in 1% DMSO, cultured 24-96 h; read-out: EC50.
For the compound `COc1ccc(-c2cn([C@@H]3O[C@H](CO)[C@@H](O)[C@@]3(C)O)c3ncnc(N)c23)cn1` [Compound 24, 7-(2-C-methyl-β-D-ribofuranosyl)-5-(6-methoxypyridin-3-yl)-7H-pyrrolo[2,3-d]pyrimidin-4-amine], the concentration giving a half-maximal response (EC50) was more than 50 µM.
`C[C@@]1(O)[C@H](O)[C@@H](CO)O[C@H]1n1nc(-c2cc[nH]n2)c2c(N)ncnc21` [Compound 25, 1-(2-C-methyl-β-D-ribofuranosyl)-3-(1H-pyrazol-3-yl)-1H-pyrazolo[3,4-d]pyrimidin-4-amine]: the EC50 was less than 20 µM.
For `C[C@@]1(O)[C@H](O)[C@@H](CO)O[C@H]1n1cc(-c2ccn[nH]2)c2c(N)ncnc21` [Compound 5, 7-(2-C-methyl-β-D-ribofuranosyl)-5-(1H-pyrazol-5-yl)-7H-pyrrolo[2,3-d]pyrimidin-4-amine], the EC50 lay within 20 to 50 µM.
`C[C@@]1(F)[C@H](O)[C@@H](CO)O[C@H]1n1cc(-c2ncco2)c2c(N)ncnc21` [Compound 22, 7-(2-deoxy-2-fluoro-2-methyl-β-D-ribofuranosyl)-5-(1,3-oxazol-2-yl)-7H-pyrrolo[2,3-d]pyrimidin-4-amine]: the EC50 is 20 to 50 µM.
Still for that read-out and setting: the result for `C[C@@]1(F)[C@H](O)[C@@H](CO)O[C@H]1n1cc(-c2ncon2)c2c(N)ncnc21` [Compound 23, 7-(2-deoxy-2-fluoro-2-methyl-β-D-ribofuranosyl)-5-(1,2,4-oxadiazol-3-yl)-7H-pyrrolo[2,3-d]pyrimidin-4-amine] reads 20 to 50 µM.
For `C[C@@]1(O)[C@H](O)[C@@H](CO)O[C@H]1n1cc(-c2cccs2)c2c(N)ncnc21` [Compound 9, 7-(2-C-methyl-β-D-ribofuranosyl)-5-(2-thienyl)-7H-pyrrolo[2,3-d]pyrimidin-4-amine], the EC50 is less than 20 µM.
As for `C[C@@]1(O)[C@H](O)[C@@H](CO)O[C@H]1n1cc(-c2nnco2)c2c(N)ncnc21` [Compound 27, 7-(2-C-methyl-β-D-ribofuranosyl)-5-(1,3,4-oxadiazol-2-yl)-7H-pyrrolo[2,3-d]pyrimidin-4-amine], the EC50 was less than 20 µM.
Consider `C[C@@]1(O)[C@H](O)[C@@H](CO)O[C@H]1n1cc(-c2ncccn2)c2c(N)ncnc21` [Compound 3, 7-(2-C-methyl-β-D-ribofuranosyl)-5-pyrimidin-2-yl-7H-pyrrolo[2,3-d]pyrimidin-4-amine], for which the EC50 was more than 50 µM.
The same measure, in the same setting: the result for `C[C@@]1(F)[C@H](O)[C@@H](CO)O[C@H]1n1cc(-c2ccn[nH]2)c2c(N)ncnc21` [Compound 21, 7-(2-deoxy-2-fluoro-2-methyl-β-D-ribofuranosyl)-5-(1H-pyrazol-5-yl)-7H-pyrrolo[2,3-d]pyrimidin-4-amine] reads 20 to 50 µM.
On to `C[C@@]1(O)[C@H](O)[C@@H](CO)O[C@H]1n1cc(-c2ncco2)c2c(N)ncnc21` [Compound 2, 7-(2-C-methyl-β-D-ribofuranosyl)-5-(1,3-oxazol-2-yl)-7H-pyrrolo[2,3-d]pyrimidin-4-amine], for which the EC50 was less than 20 µM.
As to `C[C@@]1(O)[C@H](O)[C@@H](CO)O[C@H]1n1cc(-c2cn[nH]c2)c2c(N)ncnc21` [Compound 6, 7-(2-C-methyl-β-D-ribofuranosyl)-5-(1H-pyrazol-4-yl)-7H-pyrrolo[2,3-d]pyrimidin-4-amine], the EC50 is 20 to 50 µM.
As for `C[C@@]1(O)[C@H](O)[C@@H](CO)O[C@H]1n1cc(-c2ncon2)c2c(N)ncnc21` [Compound 7, 7-(2-C-methyl-β-D-ribofuranosyl)-5-(1,2,4-oxadiazol-3-yl)-7H-pyrrolo[2,3-d]pyrimidin-4-amine], the EC50 was less than 20 µM.

Staying with this assay, now noted: HuH-7 cells containing a subgenomic HCV Replicon, compounds up to 100 μM in 1% DMSO, cultured 24-96 h; read-out: EC50.
Take “7-(2-C-methyl-β-D-ribofuranosyl)-5-(1-methyl-1H-tetrazol-5-yl)-7H-pyrrolo[2,3-d]pyrimidin-4-amine (A) and 7-(2-C-methyl-β-D-ribofuranosyl)-5-(2-methyl-2H-tetrazol-5-yl)-7H-pyrrolo[2,3-d]pyrimidin-4-amine (B) [Compound 1]”: the EC50 was less than 20 µM.

A further assay deals with T1, HCV NS5B polymerase (Hepatitis C virus genotype 1b, UniProt P26663).
T1 construct: RNA-dependent RNA polymerase (NS5B) of the hepatitis C virus (HCV)
T1 sequence (P26663 2420-2955): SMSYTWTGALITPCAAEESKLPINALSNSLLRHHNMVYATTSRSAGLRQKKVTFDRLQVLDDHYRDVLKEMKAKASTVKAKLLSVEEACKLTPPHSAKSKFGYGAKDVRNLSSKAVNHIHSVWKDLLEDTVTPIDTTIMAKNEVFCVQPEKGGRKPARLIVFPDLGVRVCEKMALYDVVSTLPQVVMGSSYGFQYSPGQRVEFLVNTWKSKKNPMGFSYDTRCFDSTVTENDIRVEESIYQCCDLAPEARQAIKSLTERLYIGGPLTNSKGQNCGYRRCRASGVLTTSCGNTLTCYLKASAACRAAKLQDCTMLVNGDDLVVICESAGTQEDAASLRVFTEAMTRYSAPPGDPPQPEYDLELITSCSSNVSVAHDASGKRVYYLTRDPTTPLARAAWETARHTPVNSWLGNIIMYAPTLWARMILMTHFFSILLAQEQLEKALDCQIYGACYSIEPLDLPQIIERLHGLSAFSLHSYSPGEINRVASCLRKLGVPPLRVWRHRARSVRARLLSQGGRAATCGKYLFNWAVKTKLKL
As to the kind of experiment: Assay for inhibition of HCV NS5B polymerase (RdRp, 3H-UTP incorporation on heteromeric RNA template). The format is biochemical. The note with it: heterogeneous template dCoh, 2 nM DC55-lb.BK or 10 nM DC55-2b.2, NTPs 1 uM, room temperature 2 hours. The procedure:
The effectiveness of the compounds of the present invention as inhibitors of HCV NS5B RNA-dependent RNA polymerase (RdRp) was measured in the following assay.
This assay was used to measure the ability of the nucleoside derivatives of the present invention to inhibit the enzymatic activity of the RNA-dependent RNA polymerase (NS5B) of the hepatitis C virus (HCV) on a heteromeric RNA template.
Assay Buffer Conditions: (52.5 μL-total/reaction)
20 nM heterogeneous template dCoh
2.5 μl/reaction inhibitor compound in H2O
The compounds were tested at various concentrations up to 100 μM final concentration. Nucleoside derivatives were pipetted into wells of a 96-well plate. The enzyme diluted in the reaction buffer was pipetted into the wells and incubated at room temperature for 10 minutes; then the template dCoh was added and incubated for 10 minutes at room temperature. The reaction was initiated by addition of a mixture of nucleotide triphosphates (NTP's), including the radiolabeled UTP, and allowed to proceed at room temperature for 2 hours. Blank samples were done omitting the dCoh template. The reaction was quenched by addition of 50 ul TCA 20% (trichloroacetic acid)/NaPPi 20 mM and the plates were put in ice for 5 minutes. Then, the mixtures were filtered onto Unifilter GF/B 96-well plates (PerkinElmer), washed with TCA 2.5%. 50 ul/well of scintillator solution (Microscint 20, PerkinElmer) were added and the plates were counted in a scintillator counter.
The percentage of inhibition was calculated according to the following equation:
% Inhibition=[1−(cpm in test reaction−cpm in blank)/(cpm in control reaction−cpm in blank)]×100.
Turning to `C[C@@]1(O)[C@H](O)[C@@H](COP(=O)(O)OP(=O)(O)OP(=O)(O)O)O[C@H]1n1cc(-c2ncon2)c2c(N)ncnc21` [Compound 16, 7-(2-C-methyl-5-triphospho-β-D-ribofuranosyl)-5-(1,2,4-oxadiazol-3-yl)-7H-pyrrolo[2,3-d]pyrimidin-4-amine], the IC50 was less than 1 µM.
`C[C@@]1(O)[C@H](O)[C@@H](COP(=O)(O)OP(=O)(O)OP(=O)(O)O)O[C@H]1n1cc(-c2cn[nH]c2)c2c(N)ncnc21` [Compound 15, 7-(2-C-methyl-5-triphospho-β-D-ribofuranosyl)-5-(1H-pyrazol-4-yl)-7H-pyrrolo[2,3-d]pyrimidin-4-amine] had an IC50 of less than 50 µM.
On to `C[C@@]1(F)[C@H](O)[C@@H](COP(=O)(O)OP(=O)(O)OP(=O)(O)O)O[C@H]1n1cc(-c2ccn[nH]2)c2c(N)ncnc21` [Compound 20, 7-(2-deoxy-2-fluoro-2-methyl-5-triphospho-β-D-ribofuranosyl)-5-(1H-pyrazol-5-yl)-7H-pyrrolo[2,3-d]pyrimidin-4-amine], for which the IC50 was less than 1 µM.
In turn, `C[C@@]1(O)[C@H](O)[C@@H](COP(=O)(O)OP(=O)(O)OP(=O)(O)O)O[C@H]1n1nc(-c2cc[nH]n2)c2c(N)ncnc21` [Compound 26, 1-[5-O-(hydroxy{[hydroxy(phosphonooxy)phosphoryl]oxy}phosphoryl)-2-C-methyl-b-D-ribofuranosyl]-3-(1H-pyrazol-3-yl)-1H-pyrazolo[3,4-d]pyrimidin-4-amine] showed an IC50 of less than 50 µM.
For the compound `C[C@@]1(O)[C@H](O)[C@@H](COP(=O)(O)OP(=O)(O)OP(=O)(O)O)O[C@H]1n1cc(-c2nnco2)c2c(N)ncnc21` [Compound 28, 7-(2-C-methyl-5-triphospho-β-D-ribofuranosyl)-5-(1,3,4-oxadiazol-2-yl)-7H-pyrrolo[2,3-d]pyrimidin-4-amine], the IC50 is less than 50 µM.

Broadly, the EC50 is the concentration needed to bring the measured effect to its halfway point. A word on the IC50: it is the point on the concentration scale where inhibition reaches its midpoint.

Values taken from patent publication US20110306573A1, “NUCLEOSIDE DERIVATIVES AS INHIBITORS OF VIRAL POLYMERASES” (priority 2008, published 2011).
